Results on 20 molecules are retold here after patent US10059695B2, “Cot modulators and methods of use thereof” (Gilead Sciences, Inc., priority 2016, dated 2018).

In assay [1] the target is Human Cot (Homo sapiens (Human), UniProt P41279). The assay can be described thus: High Throughput Cot Biochemical Assay (KinEASE TR-FRET). The conditions noted are these: recombinant human Cot catalytic domain, 400 μM ATP. The method, then:
Example 24: High Throughput Cot Biochemical Assay
Human Cot enzyme activity was measured using KinEASE (Cisbio), a time-resolved fluorescence resonance energy transfer (TR-FRET) immunoassay. In this assay, Cot-catalyzes the phosporylation of a XL665-labeled peptide substrate. Europium conjugated […] specific antibody binds the resulting phosphorylated peptide. Formation of phosphorylated peptide is quantified by TR-FRET with Europium as the donor and XL665 the acceptor in a 2-step endpoint assay. Purified recombinant human Cot catalytic domain (30-397 amino acids) was purchased from Carna Biosciences. In brief, test compounds serially diluted in DMSO were delivered into Proxy white, low volume, 384 well plates using the Echo 550 acoustic liquid dispenser (Labcyte®). Cot enzyme and substrates were dispensed into assay plates using a Multi-Flo (Bio-Tek Instruments). The standard 5 μL reaction mixture contained 400 μM ATP, 1 μM STK3 peptide, 5 nM of Cot in reaction buffer (10 mM MOPS, pH 7.0, 0.02% NaN3, 0.5 mg/mL BSA, 10 mM MgOAc, 1 mM DTT, 0.025% NP-40, 1.5% glycerol) and 0.1% DMSO. After 2.5 hrs of incubation at room temperature, 5 μL of Stop and Detect Solution (1:200 Europium Cryptate labeled anti-phosphorylated peptide antibody solution and 125 nM strepavidin-XL665 Tracer in a 50 mM Hepes pH 7.0 detection buffer containing sufficient EDTA) was added. The plate was then further incubated for 120 minutes at room temperature and read using an Envision 2103 Multilabeled reader (PerkinElmer) with excitation/emission/FRET emission at 340 nm/615 nm/665 nm, respectively. Fluorescence intensities at 615 nm and 665 nm emission wavelengths were expressed as a ratio (665 nm/615 nm).
In general terms: In TR-FRET formats the signal depends on donor and acceptor labels being close together.

Assay [2] relates to TNFα. The assay can be described thus: Cot Monocyte TNFα Cell Based Assay. The conditions noted are these: LPS-stimulated cryopreserved human monocytes, TNFα by TR-FRET. The method, then:
Example 23: Cot Monocyte TNFα Cell Based Assay
Cryopreserved human monocytes (Stem Cell Technologies) were thawed, diluted in RPMI with Glutamax (10 mM HEPES, 1× Pen-Strep, 55 μM β-mercaptoethanol, 1 mM Sodium pyruvate) media containing 10% FBS to 0.125×10^6 cells/ml and recovered at 37° C. for 2 hours. The cell suspension was then plated at a density of 5,000 cells/well onto black 384 well Greiner clear bottom plates. Plates were pre-spotted with test compounds and serially diluted in DMSO where 200 nL/well were delivered using the Echo 550 acoustic liquid dispenser (Labcyte®) for a final DMSO concentration of 0.5%. Plated cells were treated with compound for 1 hour at 37° C. Cells were then stimulated with 50 μg/ml of LPS (Sigma) excluding outside columns of plate used for unstimulated cell control wells. Cells were incubated for an additional 4 hours at 37° C. Cells were then spun out of the media and 5 μl of sample were taken and analyzed for total TNFα content using the TR-FRET Human TNFα detection system (CisBio). This system utilizes two labeled antibodies (cryptate and XL665) that bind to two different epitopes of the TNFα molecule and produce FRET signal proportional to the concentration of TNFα in the sample. Detection antibodies are mixed 50:50 and 5 μL were dispensed into each well. Plates were covered with clear seals and incubated at room temp overnight. The following morning plates were read using an Envision 2103 Multilabeled reader (PerkinElmer) with excitation/emission/FRET emission at 340 nm/615 nm/665 nm, respectively. Fluorescence intensities at 615 nm and 665 nm emission wavelengths were expressed as a ratio (665 nm/615 nm). Percent of control was calculated as follows: % Control=100×(RatioSample−Ratio0% stimulation)/(Ratio100% Stimulation−Ratio0% Stimulation) where unstimulated cells (0% stimulation) were the negative control and stimulated cells (100% stimulation) were used as the positive control.

A value given as a limit tells only on which side of the number the result lay.

Human Cot, sequence (P41279 30-397): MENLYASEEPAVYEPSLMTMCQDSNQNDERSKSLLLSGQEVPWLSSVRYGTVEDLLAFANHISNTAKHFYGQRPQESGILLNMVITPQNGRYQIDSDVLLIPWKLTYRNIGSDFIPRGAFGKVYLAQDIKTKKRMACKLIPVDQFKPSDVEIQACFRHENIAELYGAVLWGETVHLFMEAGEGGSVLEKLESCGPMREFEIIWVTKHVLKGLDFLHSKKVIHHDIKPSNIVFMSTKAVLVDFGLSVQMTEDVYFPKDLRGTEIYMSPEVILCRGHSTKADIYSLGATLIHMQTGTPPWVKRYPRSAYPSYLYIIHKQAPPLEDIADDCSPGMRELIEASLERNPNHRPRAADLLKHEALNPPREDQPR

On to `[2H][C@](Nc1ccc2ncnc(NCC(C)(C)C)c2c1)(c1ccc(F)cc1)c1cn(C2CC2)nn1` [I-1, (S)-N^6-((1-cyclopropyl-1H-1,2,3-triazol-4-yl)(4-fluorophenyl)methyl-d)-N^4-neopentylquinazoline-4,6-diamine], for which the IC50 in assay [1] stood at 0.005 µM. In addition, the 50% effective concentration (EC50) in assay [2] is 0.101 µM.

For `CC(C)(C)CNc1ncnc2ccc(N[C@@H](c3ccc(F)cc3)c3cn(C4CC4)nn3)cc12` [I-2, (S)-N^6-((1-cyclopropyl-1H-1,2,3-triazol-4-yl)(4-fluorophenyl)methyl)-N^4-neopentylquinazoline-4,6-diamine], the 50% inhibitory concentration (IC50) in assay [1] was found to be 0.0077 µM. Besides, the EC50 in assay [2] came out at 0.085 µM.

For `[2H][C@](Nc1ccc2ncnc(NCC3(C)CCOCC3)c2c1)(c1ccc(F)cc1)c1cn(C2CC2)nn1` [I-3, (S)-N^6-((1-cyclopropyl-1H-1,2,3-triazol-4-yl)(4-fluorophenyl)methyl-d)-N^4-((4-methyltetrahydro-2H-pyran-4-yl)methyl)quinazoline-4,6-diamine], the IC50 in assay [1] is 0.011 µM. This molecule yielded an EC50 in assay [2] of 0.296 µM.

As for `[2H][C@](Nc1ccc2ncnc(N[C@H](CC)c3ccccc3)c2c1)(c1ccc(F)cc1)c1cn(C2CC2)nn1` [I-4, N^6-((S)-(1-cyclopropyl-1H-1,2,3-triazol-4-yl)(4-fluorophenyl)methyl-d)-N^4-((R)-1-phenylpropyl) quinazoline-4,6-diamine], the IC50 in assay [1] was 0.043 µM. In assay [2], this molecule displayed an EC50 of 0.796 µM.

Regarding `[2H]C(Nc1ccc2ncnc(NC(CC#N)c3ccccc3)c2c1)(c1ccc(F)cc1)c1cn(C2CC2)nn1` [I-5, 3-((6-(((S)-(1-cyclopropyl-1H-1,2,3-triazol-4-yl)(4-fluorophenyl)methyl-d)amino)quinazolin-4-yl)amino)-3-phenylpropanenitrile], the IC50 in assay [1] is 0.053 µM. The 50% effective concentration (EC50) in assay [2] was found to be 2.5 µM.

For `[2H][C@](c1ccc(F)cc1)(c1cn(C2CC2)nn1)N(CC)c1ccc2ncnc(NCC(C)(C)C)c2c1` [I-6, (S)-N6-((1-cyclopropyl-1H-1,2,3-triazol-4-yl)(4-fluorophenyl)methyl-d)-N6-ethyl-N4-neopentylquinazoline-4,6-diamine], the IC50 in assay [1] is 0.276 µM. This molecule also yielded a half-maximal effective concentration (EC50) in assay [2] of 4.23 µM.

`[2H][C@](Nc1ccc2ncnc(NCC(C)(C)C)c2c1)(c1cccc(C#N)c1)c1cn(C2CC2)nn1` [I-7, (S)-3-((1-cyclopropyl-1H-1,2,3-triazol-4-yl)((4-(neopentylamino)quinazolin-6-yl)amino)methyl-d)benzonitrile]: the IC50 in assay [1] is 0.0026 µM. Besides, the half-maximal effective concentration (EC50) in assay [2] came to 0.102 µM.

Take `CC(C)(C)CNc1ncnc2ccc(N[C@H](c3cn(C4CC4)nn3)c3ccccc3Cl)cc12` [I-8, (S)-N^6-((2-chlorophenyl)(1-cyclopropyl-1H-1,2,3-triazol-4-yl)methyl)-N^4-neopentylquinazoline-4,6-diamine]: the IC50 in assay [1] was 0.013 µM. The EC50 in assay [2] was determined as 0.169 µM.

Consider `[2H][C@@](Nc1cc(Cl)c2ncnc(NCC(C)(C)C)c2c1)(c1cn(C2CC2)nn1)c1ccccc1Cl` [I-9, (S)-8-chloro-N6-((2-chlorophenyl)(1-cyclopropyl-1H-1,2,3-triazol-4-yl)methyl-d)-N4-neopentylquinazoline-4,6-diamine], for which, in assay [1], the half-inhibitory concentration (IC50) stood at 0.0048 µM. For the same molecule, the EC50 in assay [2] was determined as 0.086 µM.

Turning to `[2H][C@@](Nc1cc(Cl)c2ncnc(NCC(C)(C)C)c2c1)(c1cn(CC(=O)O)nn1)c1ccccc1Cl` [I-10, (S)-2-(4-(((8-chloro-4-(neopentylamino)quinazolin-6-yl)amino)(2-chlorophenyl)methyl-d)-1H-1,2,3-triazol-1-yl)acetic acid], the IC50 in assay [1] amounted to 0.013 µM. The same molecule showed an EC50 in assay [2] greater than 1 µM.

On to `[2H][C@](Nc1cc(Cl)c2ncnc(N[C@H](CCC#N)c3ccccc3)c2c1)(c1ccc(F)cc1)c1cn(C2CC2)nn1` [I-11, (R)-4-((8-chloro-6-(((S)-(1-cyclopropyl-1H-1,2,3-triazol-4-yl)(4-fluorophenyl)methyl-d)amino)quinazolin-4-yl)amino)-4-phenylbutanenitrile], for which the IC50 in assay [1] stood at 0.046 µM. In assay [2], this molecule registered an EC50 of 0.671 µM.

For `[2H][C@](Nc1cc(Cl)c2ncnc(N[C@H](CCC#N)c3ccccc3)c2c1)(c1ccc(F)cc1)c1cn(C2(C(F)(F)F)CC2)nn1` [I-12, (R)-4-((8-chloro-6-(((S)-(4-fluorophenyl)(1-(1-(trifluoromethyl)cyclopropyl)-1H-1,2,3-triazol-4-yl)methyl-d)amino)quinazolin-4-yl)amino)-4-phenylbutanenitrile], the IC50 in assay [1] is 0.137 µM. In assay [2], this molecule returned an EC50 greater than 1 µM.

As to `[2H][C@](Nc1cc(C#N)c2ncnc(NCC(C)(C)C)c2c1)(c1ccc(F)cc1)c1cn(C2CC2)nn1` [I-14, (S)-6-(((1-cyclopropyl-1H-1,2,3-triazol-4-yl)(4-fluorophenyl)methyl-d)amino)-4-(neopentylamino) quinazoline-8-carbonitrile], the IC50 in assay [1] was 0.0021 µM. The half-maximal effective concentration (EC50) in assay [2] was 0.042 µM.

With `Cc1c(C#N)cccc1[C@H](Nc1cc(Cl)c2ncnc(NCC(C)(C)C)c2c1)c1cn(C2(C(F)F)CC2)nn1` [I-23, (S)-3-(((8-chloro-4-(neopentylamino)quinazolin-6-yl)amino)(1-(1-(difluoromethyl)cyclopropyl)-1H-1,2,3-triazol-4-yl)methyl)-2-methylbenzonitrile], the IC50 in assay [1] is 0.0016 µM.

As to `O=C(OCc1ccccc1)N1CCC(n2cc(C(Nc3cc(Cl)c4ncnc(Nc5ccc(F)c(Cl)c5)c4c3)c3ccccc3)nn2)CC1` (stereo not drawn) [II-1, benzyl 4-(4-(((8-chloro-4-((3-chloro-4-fluorophenyl)amino)quinazolin-6-yl)amino)(phenyl)methyl)-1H-1,2,3-triazol-1-yl)piperidine-1-carboxylate], the half-inhibitory concentration (IC50) in assay [1] worked out at 8.48 µM.

In the case of `Fc1ccc(Nc2ncnc3c(Cl)cc(NC(c4ccccc4)c4cn(C5CCNCC5)nn4)cc23)cc1Cl` (stereo not drawn) [II-2, 8-chloro-N^4-(3-chloro-4-fluorophenyl)-N^6-(phenyl(1-(piperidin-4-yl)-1H-1,2,3-triazol-4-yl)methyl) quinazoline-4,6-diamine], the half-inhibitory concentration (IC50) in assay [1] was found to be 0.028 µM.

For the molecule `CCN1CCC(n2cc(C(Nc3cc(Cl)c4ncnc(Nc5ccc(F)c(Cl)c5)c4c3)c3ccccc3)nn2)CC1` (stereo not drawn) [II-3, 8-chloro-N^4-(3-chloro-4-fluorophenyl)-N^6-((1-(1-ethylpiperidin-4-yl)-1H-1,2,3-triazol-4-yl)(phenyl)methyl) quinazoline-4,6-diamine], the IC50 in assay [1] was found to be 0.019 µM.

Consider `CC(C)(C)N1CCC(n2cc([C@@H](Nc3ccc4ncnc(Nc5ccc(F)c(Cl)c5)c4c3)c3ccc(Cl)cc3)nn2)CC1` [II-5, (S)-N^6-((1-(1-(tert-butyl)piperidin-4-yl)-1H-1,2,3-triazol-4-yl)(4-chlorophenyl)methyl)-N^4-(3-chloro-4-fluorophenyl) quinazoline-4,6-diamine], for which, in assay [1], the IC50 turned out to be 0.072 µM.

With `Fc1ccc(Nc2ncnc3ccc(N[C@@H](c4ccc(Cl)cc4)c4cn(C5CCNCC5)nn4)cc23)cc1Cl` [II-6, (S)-N^4-(3-chloro-4-fluorophenyl)-N^6-((4-chlorophenyl)(1-(piperidin-4-yl)-1H-1,2,3-triazol-4-yl)methyl) quinazoline-4,6-diamine], the IC50 in assay [1] worked out at 0.049 µM.

For the molecule `Fc1ccc(Nc2ncnc3ccc(N[C@@H](c4ccc(Cl)cc4)c4cn(C5COC5)nn4)cc23)cc1Cl` [II-7, (S)-N^4-(3-chloro-4-fluorophenyl)-N^6-((4-chlorophenyl)(1-(oxetan-3-yl)-1H-1,2,3-triazol-4-yl)methyl) quinazoline-4,6-diamine], the IC50 in assay [1] was 0.284 µM.

By IC50 is commonly meant the concentration needed to halve the response being measured. What is called EC50 is the concentration at which the effect is half-maximal. A higher EC50 goes with lower potency in that assay.
